What was measured:
Assay type in all cases: in vivo
[1] = test system: Spodoptera frugiperda; experiment: Spodoptera frugiperda spray test; conditions: foliar, 168 h, maize leaf discs, after 7 days, read-out: efficacy (caterpillars killed)
Protocol: Spodoptera frugiperda—Spray Test Solvent: 78.0 parts by weight of acetone • • 1.5 parts by weight of dimethylformamide Emulsifier: alkylaryl polyglycol ether
(§1) To produce a suitable active compound formulation, 1 part by weight of active compound is dissolved using the stated parts by weight of solvent and made up with water containing an emulsifier concentration of 1000 ppm until the desired concentration is attained. To produce further test concentrations, the formulation is diluted with emulsifier-containing water.
Leaf discs of maize (Zea mays) are sprayed with an active compound formulation of the desired concentration and, after drying, populated with caterpillars of the fall armyworm (Spodoptera frugiperda).
After 7 days, the efficacy in % is determined. 100% means that all the caterpillars have been killed; 0% means that no caterpillar has been killed.

[2] = test system: Phaedon cochleariae; experiment: Phaedon cochleariae spray test; conditions: foliar, 168 h, Chinese cabbage leaf discs, after 7 days, read-out: efficacy (beetle larvae killed)
Protocol: Phaedon cochleariae—Spray Test Solvent: 78.0 parts by weight of acetone • • 1.5 parts by weight of dimethylformamide Emulsifier: alkylaryl polyglycol ether
as §1
Discs of Chinese cabbage leaves (Brassica pekinensis) are sprayed with an active compound formulation of the desired concentration and, after drying, populated with larvae of the mustard beetle (Phaedon cochleariae).
After 7 days, the efficacy in % is determined. 100% means that all the beetle larvae have been killed; 0% means that no beetle larvae have been killed.

[3] = test system: Diabrotica balteata; experiment: Diabrotica balteata spray test; conditions: 168 h, beetle larvae on wheat, after 7 days, read-out: efficacy (wheat plant growth); for pest or weed control at 100 g/ha: 100 g/ha (=32 μg/cavity); for pest or weed control at 500 g/ha: 500 g/ha (=160 μg/cavity); for pest or weed control at 125 g/ha: 125 g/ha (=40 μg/cavity)
Protocol: Diabrotica balteata—Spray Test Solvent: 78 parts by weight of acetone • • 1.5 parts by weight of dimethylformamide Emulsifier: alkylaryl polyglycol ether
as §1
Pre-swollen wheat grains (Triticum aestivum) are incubated in a multiwell plate filled with agar and a little water for one day (5 seed grains per cavity). The germinated wheat grains are sprayed with an active compound formulation of the desired concentration. Subsequently, each cavity is infected with 10-20 beetle larvae of Diabrotica balteata.
After 7 days, the efficacy in % is determined. 100% means that all wheat plants have grown as in the untreated, uninfected control; 0% means that no wheat plant has grown.

[4] = test system: Meloidogyne incognita; experiment: Meloidogyne incognita test; conditions: 336 h, lettuce, after 14 days, read-out: nematicidal efficacy (formation of galls)
Protocol: Meloidogyne incognita Test Solvent: 125.0 parts by weight of acetone
To produce a suitable active compound formulation, 1 part by weight of active compound is mixed with the stated amount of solvent and the concentrate is diluted to the desired concentration with water.
Vessels are filled with sand, active compound solution, an egg/larvae suspension of the southern root-knot nematode (Meloidogyne incognita) and lettuce seeds. The lettuce seeds germinate and the plants develop. The galls develop on the roots.
After 14 days, the nematicidal efficacy in % is determined by the formation of galls. 100% means that no galls were found; 0% means that the number of galls on the treated plants corresponds to the untreated control.

[5] = test system: Ctenocephalides felis; experiment: Ctenocephalides felis oral test; conditions: 48 h, 100 ppm in citrated cattle blood, adult cat fleas, after 2 days, read-out: efficacy (kill)
Protocol: Ctenocephalides felis—Oral Test
Solvent: Dimethyl Sulfoxide
To produce a suitable active compound formulation, 10 mg of active compound are mixed with 0.5 ml of dimethyl sulfoxide. Dilution with citrated cattle blood gives the desired concentration.
About 20 unfed adult cat fleas (Ctenocephalides felis) are placed into a chamber which is closed at the top and bottom with gauze. A metal cylinder whose bottom end is closed with parafilm is placed onto the chamber. The cylinder contains the blood/active compound formulation, which can be imbibed by the fleas through the parafilm membrane.
After 2 days, the kill in % is determined. 100% means that all of the fleas have been killed; 0% means that none of the fleas have been killed.

| Compound | pest or weed control at 100 g/ha [1] | pest or weed control at 100 g/ha [3] | further results |
| --- | --- | --- | --- |
| CCC(=O)Nc1nc(-c2ccc(C=NNC(=S)Nc3ccccc3C(C)C)cc2)nn1-c1ccc(OC(F)(F)F)cc1 [Compound I-012] | 100% |  | pest or weed control at 100 g/ha [2]: 100% |
| CC(C)c1ccccc1N1C(=O)CSC1=NN=Cc1ccc(-c2nc(N)n(-c3ccc(OC(F)(F)F)cc3)n2)cc1 [Compound I-056] | 100% | 100% | pest or weed control at 500 g/ha [3]: 100%; pest or weed control at 20 ppm [4]: 90% |
| CNc1nc(-c2cc(F)c(C=NN=C3SCC(=O)N3c3ccccc3C(C)C)cc2F)nn1-c1ccc(OC(F)(F)F)cc1 [Compound I-111] | 100% | 100% | pest or weed control at 20 ppm [4]: 100% |
| CNc1nc(-c2cc(F)c(C=NNC(=S)Nc3ccccc3C(C)C)c(F)c2)nn1-c1ccc(OC(F)(F)F)cc1 [Compound I-107] | 100% | 100% | pest or weed control at 20 ppm [4]: 90% |
| CCNc1nc(-c2ccc(C=NN=C3SCC(=O)N3c3ccccc3C(C)C)cc2)nn1-c1ccc(OC(F)(F)F)cc1 [Compound I-047] |  |  | pest or weed control at 20 ppm [4]: 90% |
| CC(C)Nc1nc(-c2ccc(C=NN=C3SCC(=O)N3c3ccccc3C(C)C)cc2)nn1-c1ccc(OC(F)(F)F)cc1 [Compound I-048] |  |  | pest or weed control at 20 ppm [4]: 90% |
| CC(C)c1ccccc1NC(=S)NN=Cc1ccc(-c2nc(NC(=O)C3CC3)n(-c3ccc(OC(F)(F)F)cc3)n2)cc1 [Compound I-013] | 100% |  | pest or weed control at 100 ppm [5]: 100%; pest or weed control at 100 g/ha [2]: 100% |
| CC(=O)Nc1nc(-c2ccc(C=NNC(=S)Nc3ccccc3C)cc2)nn1-c1ccc(OC(F)(F)F)cc1 [Compound I-010] | 100% |  | pest or weed control at 100 ppm [5]: 100%; pest or weed control at 100 g/ha [2]: 100% |
| CO[C@@H]1[C@@H](OC)[C@H](C)O[C@@H](OC(=O)Nc2ccc(-c3nc(NC(=O)C4CC4)n(-c4ccc(OC(F)(F)C(F)(F)F)cc4)n3)cc2)[C@@H]1OC [Compound I-004] |  |  | pest or weed control at 500 g/ha ([1]; 500 g/ha): 83%; pest or weed control at 100 g/ha [2]: 100%; pest or weed control at 500 g/ha ([2]; 500 g/ha): 100% |
| CCC(=O)Nc1nc(-c2ccc(NC(=O)N=C3SCC(=O)N3c3ccccc3C(C)C)cc2)nn1-c1ccc(OC(F)(F)F)cc1 [Compound I-036] | 100% | 80% | pest or weed control at 500 g/ha [3]: 100% |
| CCC(=O)Nc1nc(-c2ccc(C(C)=NNC(=S)Nc3ccccc3C(C)C)cc2)nn1-c1ccc(OC(F)(F)F)cc1 [Compound I-016] | 100% |  | pest or weed control at 100 ppm [5]: 95%; pest or weed control at 100 g/ha [2]: 100% |
| CNc1nc(-c2ccc(C=NN=C3SCCC(=O)N3c3ccccc3C(C)C)cc2)nn1-c1ccc(OC(F)(F)F)cc1 [Compound I-113] | 100% | 100% |  |
| CNc1nc(-c2ccc(C=NN=C3SCCCN3c3ccccc3C(C)C)cc2)nn1-c1ccc(OC(F)(F)C(F)(F)F)cc1 [Compound I-126, 3-[4-({[3-(2-isopropylphenyl)-1,3-thiazinan-2-yliden]hydrazono}methyl)phenyl]-N-methyl-1-[4-(pentafluoroethoxy)phenyl]-1H-1,2,4-triazol-5-amine] | 100% | 100% |  |
| CC(C)c1ccccc1N1C(=O)CSC1=NC(=O)Nc1ccc(-c2nc(N)n(-c3ccc(OC(F)(F)F)cc3)n2)cc1 [Compound I-025] | 100% |  | pest or weed control at 125 g/ha [3]: 100%; pest or weed control at 500 g/ha [3]: 100% |
| CNc1nc(-c2ccc(C=NN=C3SCC(=O)N3c3ccccc3C(C)C)cc2)nn1-c1ccc(OC(F)(F)F)cc1 [Compound I-024] | 100% |  | pest or weed control at 125 g/ha [3]: 100%; pest or weed control at 500 g/ha [3]: 100% |
| CC(=O)Nc1nc(-c2ccc(C(C)=NNC(=S)Nc3ccccc3C)cc2)nn1-c1ccc(OC(F)(F)F)cc1 [Compound I-014] | 100% |  | pest or weed control at 100 ppm [5]: 80%; pest or weed control at 100 g/ha [2]: 100% |

| Compound | pest or weed control at 100 g/ha [1] | pest or weed control at 100 g/ha [3] | further results |
| --- | --- | --- | --- |
| CNc1nc(-c2ccc(C=NN=C3SCC(=O)N3c3ccccc3C(C)C)cc2F)nn1-c1ccc(OC(F)(F)F)cc1 [Compound I-110] | 100% | 100% |  |
| CC(C)c1ccccc1NC(=S)NN=Cc1ccc(-c2nc(NS(=O)(=O)C3CC3)n(-c3ccc(OC(F)(F)F)cc3)n2)cc1 [Compound I-023] | 100% |  | pest or weed control at 125 g/ha [3]: 100%; pest or weed control at 500 g/ha [3]: 100% |
| CC(=O)Nc1nc(-c2ccc(C(C)=NNC(=S)Nc3c(C)cccc3C)cc2)nn1-c1ccc(OC(F)(F)F)cc1 [Compound I-015] | 100% |  | pest or weed control at 100 ppm [5]: 100%; pest or weed control at 100 g/ha [2]: 83% |
| C=CCNc1nc(-c2ccc(NC(=O)N=C3SCC(=O)N3c3ccccc3C(C)C)cc2)nn1-c1ccc(OC(F)(F)F)cc1 [Compound I-086] | 100% | 100% |  |
| CCNc1nc(-c2ccc(NC(=O)N=C3SCC(=O)N3c3ccccc3C(C)C)cc2)nn1-c1ccc(OC(F)(F)F)cc1 [Compound I-042] | 100% | 100% |  |
| CNc1nc(-c2ccc(C=NN=C3SC(C)C(=O)N3c3ccccc3C(C)C)cc2)nn1-c1ccc(OC(F)(F)F)cc1 (stereo not shown) [Compound I-098] | 100% | 100% |  |
| CNc1nc(-c2ccc(C=NN=C3SCC(=O)N3c3ccccc3C(C)C)cc2C#N)nn1-c1ccc(OC(F)(F)F)cc1 [Compound I-124] | 100% | 100% |  |
| CC(C)c1ccccc1NC(=S)NN=Cc1ccc(-c2nc(NCCC#N)n(-c3ccc(OC(F)(F)F)cc3)n2)cc1 [Compound I-094] | 100% | 100% |  |
| CNc1nc(-c2ccc(C=NNC(=S)Nc3cc(C)ccc3C(C)C)cc2)nn1-c1ccc(OC(F)(F)F)cc1 [Compound I-070] | 100% | 100% |  |
| CC(C)c1ccccc1N1C(=O)CSC1=NC(=O)Nc1ccc(-c2nc(NC3CCC3)n(-c3ccc(OC(F)(F)F)cc3)n2)cc1 [Compound I-041] | 100% | 100% | pest or weed control at 500 g/ha [3]: 100% |
| CNc1nc(-c2c(F)cc(C=NNC(=S)Nc3ccccc3C(C)C)cc2F)nn1-c1ccc(OC(F)(F)F)cc1 [Compound I-120] | 100% | 100% |  |
| CNC(=O)Nc1nc(-c2ccc(NC(=O)N=C3SCC(=O)N3c3ccccc3C(C)C)cc2)nn1-c1ccc(OC(F)(F)F)cc1 [Compound I-030] | 100% |  | pest or weed control at 500 g/ha [3]: 100% |
| CNc1nc(-c2ccc(C=NN3CCCSC3=Nc3ccccc3C(C)C)cc2)nn1-c1ccc(OC(F)(F)F)cc1 [Compound I-102] | 100% | 100% |  |
| CCOCCNc1nc(-c2ccc(NC(=O)N=C3SCC(=O)N3c3ccccc3C(C)C)cc2)nn1-c1ccc(OC(F)(F)F)cc1 [Compound I-044] | 100% | 80% | pest or weed control at 500 g/ha [3]: 80% |
| COC(CCNc1nc(-c2ccc(C=NNC(=S)Nc3ccccc3C(C)C)cc2)nn1-c1ccc(OC(F)(F)F)cc1)OC [Compound I-082] | 100% | 100% |  |

Reference: patent US20220289691A1, “5-AMINO-SUBSTITUTED PYRAZOLES AND TRIAZOLES AS PEST CONTROL AGENTS” (Bayer Aktiengesellschaft, priority 2019, published 2022)
